Literature values, collected in patent US20140328949A1, “ELECTROCHEMICALLY GENERATED ANTIMICROBIAL SODIUM HYDROXIDE SOLUTION” (priority 2013, published 2014).

Tested on: hairy foot warts
Conditions: for efficacy of footbath treatment against hairy foot warts: footbaths, formalin 5%, zinc sulfate 3× footbaths, spread and mild lesions

Structure (SMILES) | efficacy against more serious hairy foot wart lesions (3× footbaths, 1990 study) | efficacy of footbath treatment against hairy foot warts
O=S(=O)([O-])[O-].[Zn+2] [Zinc sulfate] | ineffective | effective at controlling the spread of hairy foot warts and treating mild lesions
O=S(=O)([O-])[O-].[Cu+2] [copper sulfate, Copper sulfate] | – | not an effective treatment
C=O [formalin] | – | effective in controlling hairy foot wart outbreaks
